# Key:
# [1] = target: T1, Recombinant Rhinovirus 3C protease serotype 14 (Human rhinovirus 14, UniProt P03303); assay: Inhibition of Rhinovirus Protease (FRET assay), serotype 14; type: biochemical, human rhinovirus (HRV) serotype 14
# T1 construct: Recombinant Rhinovirus 3C proteases from serotypes 14, 16, and 2; made in house
# [2] = target: Recombinant Rhinovirus 3C protease serotype 16 (Human rhinovirus 16, UniProt Q82122); details: RVP serotype 16; enzyme start progress curves
# Procedure: (§1) Stock solutions (50 mM, in DMSO) of various compounds were prepared; dilutions were in the same solvent. […] Assays contained 2% DMSO, 50 mM tris pH 7.6, 1 mM EDTA, a compound at the indicated concentrations, approximately 1 μM substrate, and 50-100 nM protease. […] The kobs/I values were obtained from reactions initiated by addition of enzyme rather than substrate. RVP activity is measured in the fluorescence resonance energy transfer assay.
# (§2) In the above table, all data are for RVP serotype-14 unless otherwise noted in parentheses. All strains of human rhinovirus (HRV) were purchased from American Type Culture Collection (ATCC) except for serotype 14, which was produced from the infectious cDNA clone constructed and supplied to Applicants by Dr. Robert Rueckert at the Institute for Molecular Virology, University of Wisconsin, Madison, Wis. The column designated INHIB represents the percent inhibition at 10 minute preincubation with 50 nM RVP prior to addition of substrate. The data in the column designated kobs/I was measured from progress curves in enzyme start experiments.
# [3] = target: Recombinant Rhinovirus 3C protease serotype 2 (Human rhinovirus 2, UniProt P04936); details: RVP serotype 2; enzyme start progress curves
# Procedure: as §1, §2
# HRV serotype-14 = assay: Antirhinoviral HI-HeLa Cell Culture Assay (XTT cell protection), HRV-14; type: cell-based, human rhinovirus; details: HRV serotype-14, HI-HeLa cells
# Procedure: (§3) In the Cell Protection Assay, the ability of compounds to protect cells against HRV infection was measured by the XTT dye reduction method. This method is described in Weislow, O. S., Kiser, R., Fine, D. L., Bader, J., Shoemaker, R. H., Boyd, M. R., J. Natl. Cancer Inst. 1989, 81, 577-586, the disclosure of which is incorporated herein by reference.
# (§4) Infected or mock-infected cells were suspended at 8×10^5 cells per mL and incubated with appropriate concentrations of compounds of formula I. Two days later, XTT/PMS was added to test plates, and the amount of formazan produced was quantified spectrophotometrically at 450/650 nm. […] The therapeutic index (TI) was calculated by dividing the CC50 by the EC50.
# (§5) All strains of human rhinovirus (HRV) for use in this assay were purchased from American Type Culture Collection (ATCC) except for HRV serotype-14, which was produced from the infectious cDNA clone constructed and supplied to Applicants by Dr. Robert Rueckert at the Institute for Molecular Virology, University of Wisconsin, Madison, Wis. HRV stocks were propagated, and viral assays were performed in HI-HeLa cells (ATCC). Cells were grown in Minimal Essential Medium, available from Life Technologies, with 10% fetal bovine serum.
# (§6) The compounds were tested against control compounds WIN 51711, WIN 52084, and WIN 54954, all obtained from Sterling-Winthrop Pharmaceuticals, and control compound Pirodavir, obtained from Janssen Pharmaceuticals. Antiviral data obtained for the test compounds are shown in Table 2 where all data are for HRV serotype-14 unless otherwise noted in parentheses.
# HI-HeLa cells [4] = assay: Cytotoxicity (CC50) in mock-infected HI-HeLa cells, antirhinoviral assay; type: cell-based
# HRV serotype 2 = assay: Antirhinoviral HI-HeLa Cell Culture Assay (XTT cell protection), HRV serotype 2; type: cell-based, human rhinovirus; details: HRV serotype 2, HI-HeLa cells
# Procedure: as §3, §4, §5, §6
# HRV serotype 10 = assay: Antirhinoviral HI-HeLa Cell Culture Assay (XTT cell protection), HRV serotype 10; type: cell-based, human rhinovirus; details: HRV serotype 10, HI-HeLa cells
# Procedure: as §3, §4, §5, §6
# HRV serotype 89 = assay: Antirhinoviral HI-HeLa Cell Culture Assay (XTT cell protection), HRV serotype 89; type: cell-based, human rhinovirus; details: HRV serotype 89, HI-HeLa cells
# Procedure: as §3, §4
# as §5, with “serum. […]” for “serum.”
# HRV serotype 39 = assay: Antirhinoviral HI-HeLa Cell Culture Assay (XTT cell protection), HRV serotype 39; type: cell-based, human rhinovirus; details: HRV serotype 39, HI-HeLa cells
# Procedure: as §3, §4
# as §5, with “serum. […]” for “serum.”
# HI-HeLa cells [5] = assay: Cytotoxicity (CC50) in uninfected HI-HeLa cells, anticoxsackieviral assay; type: cell-based; details: CVA-21 assay
# Procedure: The Coxsackie strain A-21 (CVA-21) was purchased from American Type Culture Collection (ATCC). Virus stocks were propagated, and antiviral assays were performed in HI-HeLa cells (ATCC). Cells were grown in Minimal Essential Medium with 10% fetal bovine serum.
# The ability of compounds to protect cells against CVA-21 infection was measured by the XTT dye reduction method. This method is described in Weislow, O. S., Kiser, R., Fine, D. L., Bader, I., Shoemaker, R. H., Boyd, M. R., J. Natl. Cancer Inst. 1989, 81, 577-586, the disclosure of which is incorporated herein by reference. HI-HeLa cells were infected with CVA-21 at a multiplicity of infection (m.o.i.) of 0.05 (CVA-21) or mock-infected with medium only. Infected or uninfected cells were resuspended at 4×10^4 cells per mL and incubated with appropriate concentrations of drug. One day later, XTT/PMS was added to test plates, and the amount of formazan produced was quantified spectrophotometrically at 450/650 nm. […] The therapeutic index (Th) was calculated by dividing the CC50 by the EC50.
# HRV serotype 16 = assay: Antirhinoviral HI-HeLa Cell Culture Assay (XTT cell protection), HRV serotype 16; type: cell-based, human rhinovirus; details: HRV serotype 16, HI-HeLa cells
# Procedure: as §3, §4
# as §5, with “serum. […]” for “serum.”
# HRV serotype 1A = assay: Antirhinoviral HI-HeLa Cell Culture Assay (XTT cell protection), HRV serotype 1A; type: cell-based, human rhinovirus; details: HI-HeLa cells
# Procedure: as §3, §4, §5, §6
# T1 sequence (P03303 1538-1719): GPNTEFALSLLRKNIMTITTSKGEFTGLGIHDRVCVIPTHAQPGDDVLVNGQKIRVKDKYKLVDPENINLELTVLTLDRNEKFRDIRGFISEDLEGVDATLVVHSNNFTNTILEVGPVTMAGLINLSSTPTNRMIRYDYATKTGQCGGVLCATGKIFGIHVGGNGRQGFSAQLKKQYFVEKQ
# Recombinant Rhinovirus 3C protease serotype 16, sequence (Q82122 1511-1693): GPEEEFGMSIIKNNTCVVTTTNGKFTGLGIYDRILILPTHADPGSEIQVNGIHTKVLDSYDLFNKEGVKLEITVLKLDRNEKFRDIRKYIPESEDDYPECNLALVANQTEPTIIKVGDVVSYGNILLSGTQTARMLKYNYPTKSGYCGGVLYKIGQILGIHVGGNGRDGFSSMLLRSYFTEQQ
# Recombinant Rhinovirus 3C protease serotype 2, sequence (P04936 1508-1690): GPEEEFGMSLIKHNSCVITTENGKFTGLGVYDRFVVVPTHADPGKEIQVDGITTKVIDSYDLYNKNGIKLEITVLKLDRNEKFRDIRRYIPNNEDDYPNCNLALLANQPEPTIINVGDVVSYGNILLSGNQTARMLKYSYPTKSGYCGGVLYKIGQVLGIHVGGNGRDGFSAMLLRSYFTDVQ
SMILES,EC50 (HRV serotype-14),CC50 (HI-HeLa cells [4]; line of HRV serotype-14),EC50 (HRV serotype 2),CC50 (HI-HeLa cells [4]; line of HRV serotype 2),also measured
"CCOC(=O)/C=C/C(CCC(N)=O)NC(=O)C(CC(=O)C(CC(C)C)NC(=O)OCc1ccccc1)Cc1ccccc1 [Compound 1, Ethyl-3-(CBZ-L-LeuΨ[COCH2]-L-Phe-L-Gln)-E-Propenoate]",360 nM,> 320000 nM,–,–,"kobs/I ([1]; RVP serotype-14, enzyme start progress curves): 17,380 M^−1sec^−1; kobs/I [2]: 3,880 M^−1sec^−1; kobs/I [3]: 2,242 M^−1sec^−1"
"CCOC(=O)/C=C/[C@H](CCC(N)=O)NC(=O)[C@@H](CC(=O)[C@H](CC(C)C)NC(=O)SCC)Cc1ccccc1 [Compound 2, Ethyl-3-(EtSCO-L-LeuΨ[COCH2]-L-Phe-L-Gln)-E-Propenoate]",240 nM,> 320000 nM,1800 nM,> 320000 nM,–
"CC(C)CC(NC(=O)SCc1ccccc1)C(=O)CC(Cc1ccccc1)C(=O)NC(C=CC(=O)N1CCc2ccccc21)CCC(N)=O [Compound 3, (2,3-Dihydroindole)-3-(BnSCO-L-LeuΨ[COCH2]-L-Phe-L-Gln)-E-Propenamide]",–,–,–,–,Ki [1]: > 7000 nM
"CCOC(=O)/C=C/[C@H](CCC(N)=O)NC(=O)[C@@H](CC(=O)[C@@H](NC(=O)SCC)C(C)C)Cc1ccccc1 [Compound 4, Ethyl-3-(EtSCO-L-ValΨ[COCH2]-L-Phe-L-Gln)-E-Propenoate]",100 nM,> 320000 nM,500 nM,> 320000 nM,–
"CCOC(=O)/C=C/C(CCC(N)=O)NC(=O)C(CC(=O)C(NC(=O)SCc1ccccc1)C(C)C)Cc1ccccc1 [Compound 5, Ethyl-3-(BnSCO-L-ValΨ[COCH2]-L-Phe-L-Gln)-E-Propenoate]",190 nM,> 320000 nM,–,–,–
"CCOC(=O)/C=C/C(CCC(N)=O)NC(=O)C(CC(=O)C(CC(C)C)NC(=O)SCc1ccccc1)Cc1ccccc1 [Compound 6, Ethyl-3-(BnSCO-L-LeuΨ[COCH2]-L-Phe-L-Gln)-E-Propenoate]",680 nM,> 100000 nM,–,–,–
"CCOC(=O)/C=C/C(CCC(N)=O)NC(=O)C(CC(=O)C(NC(=O)SC1CCCC1)C(C)C)Cc1ccccc1 [Compound 7, Ethyl-3-(CyPentylSCO-L-ValΨ[COCH2]-L-Phe-L-Gln)-E-Propenoate]",22 nM,> 10000 nM,100 nM,> 10000 nM,EC50 (HRV serotype 10): 35 nM; EC50 (HRV serotype 89): 4 nM; EC50 (HRV serotype 39): 130 nM; CC50 (HI-HeLa cells [4]; line of HRV serotype 10): > 10000 nM; CC50 (HI-HeLa cells [4]; line of HRV serotype 39): > 10000 nM; CC50 (HI-HeLa cells [4]; line of HRV serotype 89): > 10000 nM; CC50 (HI-HeLa cells [5]): > 10000 nM
"CCOC(=O)/C=C/[C@H](CCC(N)=O)NC(=O)[C@@H](CC(=O)[C@H](CC(C)C)NC(=O)SC1CCCC1)Cc1ccccc1 [Compound 8, Ethyl-3-(CyPentylSCO-L-LeuΨ[COCH2]-L-Phe-L-Gln)-E-Propenoate]",190 nM,> 100000 nM,–,–,–
"CCOC(=O)/C=C/[C@H](CCC(N)=O)NC(=O)[C@@H](CC(=O)[C@@H](NC(=O)SCC)C(C)C)Cc1ccc(C)cc1 [Compound 10, Ethyl-3-(EtSCO-L-ValΨ[COCH2]-L-(p-CH3)Phe-L-Gln)-E-Propenoate]",11 nM,> 1000 nM,180 nM,> 1000 nM,–
"CCOC(=O)/C=C/C(CCC(N)=O)NC(=O)C(CC(=O)C(NC(=O)SC1CCCC1)C(C)C)Cc1ccc(C)cc1 [Compound 11, Ethyl-3-(CyPentylSCO-L-ValΨ[COCH2]-L-(p-CH3)Phe-L-Gln)-E-Propenoate]",6 nM,> 3000 nM,120 nM,> 3000 nM,EC50 (HRV serotype 10): 60 nM; EC50 (HRV serotype 39): 130 nM; EC50 (HRV serotype 16): 25 nM; EC50 (HRV serotype 1A): 160 nM; CC50 (HI-HeLa cells [4]; line of HRV serotype 1A): > 3000 nM; CC50 (HI-HeLa cells [4]; line of HRV serotype 10): > 3000 nM; CC50 (HI-HeLa cells [4]; line of HRV serotype 16): > 3000 nM; CC50 (HI-HeLa cells [4]; line of HRV serotype 39): > 3000 nM

# Source: patent publication US6649639B2, “Antipicornaviral compounds, compositions containing them, and methods for their use” (priority 1997, dated 2003)
